Data as given in ChEMBL document CHEMBL1201862, “PubChem BioAssay data set” (2004).
The source made the active and inactive calls.

Key:
[1] = target: T1, Endoribonuclease toxin MazF (Escherichia coli K-12, UniProt P0AE70); assay: substrate-only fluorescence increase artefacts – biochemical, single-stranded RNase substrate, counter-screen for MazEF activator project, dose response (AID 588502); type: functional
T1 sequence (P0AE70 whole entry): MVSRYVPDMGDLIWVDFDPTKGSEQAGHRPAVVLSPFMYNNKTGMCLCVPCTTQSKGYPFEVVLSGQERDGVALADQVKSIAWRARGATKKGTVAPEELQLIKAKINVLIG

[2] = target: T1, Endoribonuclease toxin MazF; assay: activation of MazEF endoribonuclease cleavage – biochemical, fluorescence, single-stranded RNA substrate, uHTS hits, dose response (AID 588481); type: functional
[3] = non-specific 3'UTR reporter inhibition in Clone20-Shn3RL – cell-based, Renilla luciferase, cherry-picked, counter-screen for Shn3 inhibitor project, dose response (AID 624133); type: functional
[4] = Trypanosoma cruzi growth suppression in host cells – NIH3T3 host cells, beta-gal luminescence, confirmation (AID 2044); type: functional, cell-based;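 further: intracellular parasites grown in NIH/3T3 mouse fibroblasts as host cells; luminescent beta-galactosidase reporter signal from transgenic T. cruzi replicating inside host cells; inhibitors lower the luminescence signal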
H9c2 = assay: cells; type: functional, cell-based; details: Rattus norvegicus, H9c2, Myocardium;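 further: confirmatory concentration-response retest of ultra-high-throughput screening hits for modulation of myocardial damage; cell death induced by hydrogen peroxide oxidative stress; compound pretreatment for 60 min then peroxide exposure for 2 h; potency is for protecting the cells against peroxide damage rather than for killing them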
[5] = NIH3T3 cell viability loss – ATP luminescence, mouse fibroblasts, counter-screen, dose response (AID 2010); type: functional, cell-based;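 further: cells exposed to compound for about 90 hours before reading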
Streptococcus = assay: GAS UMAA2166 growth inhibition – luminescence, BacTiterGlo, counter-screen for streptokinase expression inhibitor project, dose response (AID 1915); type: functional, organism-based;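 further: potency for reduction of bacterial viability or growth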
[6] = reduction of Shn3 3'UTR-driven luciferase in osteoblasts – cell-based, Clone20 osteoblasts, firefly luciferase, cherry-picked, dose response (AID 624132); type: functional;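 further: firefly luciferase luminescence from reporter carrying the Shn3 3'UTR in osteoblasts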
HEK293 = assay: EBV LMP1 TES2 canonical NF-kB signalling blockers – cell-based, HEK293, luciferase, cherry-pick, dose response (AID 588343); type: functional; details: Homo sapiens
[7] = test system: Streptococcus sp. 'group A'; assay: Streptococcus pyogenes SK(-)GAS viability under kanamycin – luminescence, BacTiterGlo, confirmation, counter-screen for streptokinase expression inhibitor project, dose response (AID 1900); type: functional, organism-based
[8] = loss of viability in HepG2 cells – cell-based, CellTiter-Glo, cherry-picked, cytotoxicity control for Shn3 inhibitor project, dose response (AID 624134); type: functional
[9] = T. cruzi growth inhibition in host cells, dose response, cell-based, plate reader, dry powder, set 2 (AID 652275); type: functional
Protein RecA = target: T2, Protein RecA (Mycobacterium tuberculosis, UniProt P9WHJ3); assay: Fluorescence Cell-Free Homogeneous Dose Retest to Identify Inhibitors of RecA-Intein Splicing Activity. [Related pubchem assays (depositor defined):AID2097, AID2223, AID489010, AID492950]; type: functional
T2 sequence (P9WHJ3 whole entry): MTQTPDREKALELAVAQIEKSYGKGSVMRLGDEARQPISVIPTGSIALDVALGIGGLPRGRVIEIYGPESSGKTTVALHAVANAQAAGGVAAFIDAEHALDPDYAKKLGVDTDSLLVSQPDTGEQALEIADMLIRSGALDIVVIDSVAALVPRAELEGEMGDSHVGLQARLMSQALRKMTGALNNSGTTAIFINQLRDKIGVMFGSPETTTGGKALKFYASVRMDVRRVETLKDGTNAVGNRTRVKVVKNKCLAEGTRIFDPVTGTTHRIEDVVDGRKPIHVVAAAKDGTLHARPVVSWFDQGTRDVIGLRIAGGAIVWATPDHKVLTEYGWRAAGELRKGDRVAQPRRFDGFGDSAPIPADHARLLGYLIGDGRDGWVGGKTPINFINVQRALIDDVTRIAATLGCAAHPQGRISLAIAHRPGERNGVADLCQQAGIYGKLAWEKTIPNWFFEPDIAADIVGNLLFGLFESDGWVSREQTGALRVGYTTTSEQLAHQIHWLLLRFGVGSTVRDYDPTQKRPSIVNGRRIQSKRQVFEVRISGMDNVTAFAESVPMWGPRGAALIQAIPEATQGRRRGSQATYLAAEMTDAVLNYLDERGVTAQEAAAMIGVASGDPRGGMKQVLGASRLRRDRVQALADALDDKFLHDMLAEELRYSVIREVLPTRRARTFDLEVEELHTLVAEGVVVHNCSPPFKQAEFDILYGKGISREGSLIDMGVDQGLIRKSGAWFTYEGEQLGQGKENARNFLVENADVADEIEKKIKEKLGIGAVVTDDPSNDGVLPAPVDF

[10] = target: T3, Replicative DNA helicase DnaB (Mycobacterium tuberculosis, UniProt P9WMR3); assay: DnaB intein splicing inhibitors, dose response, biochemical, cell-free fluorescence (AID 449749); type: functional
T3 sequence (P9WMR3 whole entry): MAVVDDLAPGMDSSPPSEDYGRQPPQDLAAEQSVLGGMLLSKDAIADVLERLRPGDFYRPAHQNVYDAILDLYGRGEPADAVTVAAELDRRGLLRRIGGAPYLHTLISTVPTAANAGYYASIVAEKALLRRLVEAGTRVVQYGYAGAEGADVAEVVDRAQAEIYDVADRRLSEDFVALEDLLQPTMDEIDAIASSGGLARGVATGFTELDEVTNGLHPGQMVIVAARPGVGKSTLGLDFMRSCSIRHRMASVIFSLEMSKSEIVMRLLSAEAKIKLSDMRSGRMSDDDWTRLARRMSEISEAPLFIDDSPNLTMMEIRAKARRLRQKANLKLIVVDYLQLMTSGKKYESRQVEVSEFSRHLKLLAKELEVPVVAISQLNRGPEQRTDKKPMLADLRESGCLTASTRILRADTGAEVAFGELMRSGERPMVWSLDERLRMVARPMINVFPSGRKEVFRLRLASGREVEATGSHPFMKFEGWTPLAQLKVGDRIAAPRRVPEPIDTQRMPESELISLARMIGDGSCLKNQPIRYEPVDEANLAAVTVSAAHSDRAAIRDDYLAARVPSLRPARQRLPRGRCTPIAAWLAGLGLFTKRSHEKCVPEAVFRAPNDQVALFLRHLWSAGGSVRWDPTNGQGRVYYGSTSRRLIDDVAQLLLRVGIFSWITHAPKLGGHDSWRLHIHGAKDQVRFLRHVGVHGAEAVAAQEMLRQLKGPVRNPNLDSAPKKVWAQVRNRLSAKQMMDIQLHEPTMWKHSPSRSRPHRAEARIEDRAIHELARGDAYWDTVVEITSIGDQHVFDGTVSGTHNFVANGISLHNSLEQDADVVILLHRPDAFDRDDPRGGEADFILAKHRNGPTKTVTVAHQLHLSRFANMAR

Vero = assay: cells; type: functional; details: Chlorocebus sabaeus
[11] = blockers of HIV-1 envelope-mediated cell-cell fusion – cherry-pick, dose response (AID 652057); type: functional, cell-based
[12] = HIV-1 AD8 envelope cell-cell fusion blockers – cherry-pick, dose response (AID 652062); type: functional, cell-based;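 further: luciferase signal from cell-cell fusion driven by HIV-1 clade B AD8 Env; potency is for inhibitors of fusion seen as a drop in luminescence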
[13] = viability loss in CEM21 cells – cell-based, CellTiter-Glo luminescence, cherry-picked, cytotoxicity control for viral fusion inhibitor project, dose response (AID 652042); type: functional;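 further: potency for signal decrease meaning cytotoxicity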
INS1 = assay: INS-1E survival protection against cytokine death – cell-based, luminescence, retest, dose response (AID 449756); type: functional; details: Rattus norvegicus;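 further: cell death triggered by IL-1 beta plus TNF-alpha plus IFN-gamma mixture; protective hits raise ATP signal compared with cytokine alone wells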
[14] = target: T4, Adenosylmethionine-8-amino-7-oxononanoate aminotransferase (Mycobacterium tuberculosis, UniProt P9WQ81); assay: Mycobacterium tuberculosis BioA enzyme inhibitor Measured in Biochemical System Using Plate Reader - 2163-02_Inhibitor_Dose_CherryPick_Activity.; type: functional, Mycobacterium tuberculosis UT205
T4 sequence (P9WQ81 whole entry): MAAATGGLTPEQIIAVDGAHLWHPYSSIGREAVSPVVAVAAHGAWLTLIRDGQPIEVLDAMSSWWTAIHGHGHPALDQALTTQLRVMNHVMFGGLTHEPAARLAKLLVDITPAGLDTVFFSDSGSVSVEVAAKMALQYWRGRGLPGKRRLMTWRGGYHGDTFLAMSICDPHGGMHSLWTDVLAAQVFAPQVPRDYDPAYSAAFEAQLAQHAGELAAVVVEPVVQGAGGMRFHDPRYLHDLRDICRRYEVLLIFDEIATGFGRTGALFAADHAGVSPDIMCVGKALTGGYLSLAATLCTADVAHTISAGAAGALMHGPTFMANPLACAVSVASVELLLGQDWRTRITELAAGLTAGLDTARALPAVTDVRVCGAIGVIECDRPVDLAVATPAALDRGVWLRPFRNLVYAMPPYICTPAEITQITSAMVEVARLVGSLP

Cryptococcus neoformans = assay: PubChem AID 686997; type: functional, organism-based; details: Cryptococcus neoformans

In the case of `C=CCSC1=N/C(=C\c2cc(OC)c3c(c2)OCO3)C(=O)S1`, the EC50 [1] is reported as 64.5 µM (inactive) and the EC50 [2] is reported as 20.7 µM (inactive).
In the case of `CCCN(CCC)S(=O)(=O)c1ccc(C(=O)Nc2nnc(-c3cc(OC)cc(OC)c3)o2)cc1`, the AC50 [3] is reported as 3.45 µM (active), the EC50 [4] is reported as 0.965 µM (active) and the IC50 (H9c2) is reported as > 79 µM (inactive). The EC50 [5] was 3.92 µM (active), the EC50 (Streptococcus) was 0.43 µM (active) and the AC50 [6] was 2.64 µM (active). For the same compound, the AC50 (HEK293) was 2.51 µM (active), the EC50 [7] was 0.12 µM (active) and the AC50 [8] was 1.33 µM (active).
In the case of `CC(C)N1C[C@@H](CN(C)Cc2ccc(Cl)cc2)Oc2c(C(=O)Nc3ccncc3)cccc2C1=O`, the AC50 [9] is reported as 0.00079 µM (active).
For `Cc1ccccc1N(Cc1cc(O)nc2ccccc12)C(=O)CCl`, the EC50 (Protein RecA) was 6.26 µM (active), the AC50 [10] was 50.5 µM (active) and the CC50 (Vero) was 17.5 µM (active).
For `COc1ccccc1CN(C)C[C@H]1Oc2c(NC(=O)c3ccncc3)cccc2C(=O)N([C@@H](C)CO)C[C@@H]1C`, the AC50 [9] was 0.078 µM (active).
With `O=C(OCCOc1cccc(Cl)c1)c1cc(S(=O)(=O)N2CCCCC2)ccc1N1CCOCC1` the AC50 [11] was 48.3 µM (active), the EC50 [4] was 3.05 µM (active) and the AC50 [12] was 22.1 µM (active). For the same compound, the AC50 [13] was 52.3 µM (active), the EC50 [5] was > 30 µM (not active) and the AC50 (INS1) was 4.81 µM (active).
For `Clc1ccc(CSc2nnc(-c3cccnc3)o2)cc1`, the AC50 [14] was 4.13 µM (active).
In the case of `CCCN(CCC)c1[nH]cnc2ncnc1-2`, the AC50 (HEK293) is reported as 21.2 µM (active).
With `O=C(Nc1ccc(F)c(Cl)c1)C1CCCN(c2cnccn2)C1` (configuration not stated) the EC50 [4] was 0.39 µM (active), the EC50 [5] was > 60 µM (not active) and the AC50 [14] was 3.25 µM (active).
In the case of `CN1/C(=C/C(=O)c2ccc(Cl)cc2)Sc2cc3c(cc21)OCO3`, the EC50 [1] is reported as 62.3 µM (inactive) and the EC50 [2] is reported as > 99 µM (inactive).
With `Nc1nc(N)c2cc(S(=O)(=O)c3ccc4ccccc4c3)ccc2n1` the EC50 [1] was > 99 µM (inactive), the EC50 [2] was > 99 µM (inactive) and the AC50 [6] was 3.37 µM (active). The AC50 [8] was 2.82 µM (active).
For `CCCCN1C(=O)c2ccc(C(=O)Nc3cccnc3)cc2C1=O`, the AC50 [14] was 0.544 µM (active).
In the case of `Cc1ccc(C)c(Nc2nc3c(S(=O)(=O)c4ccccc4)nnn3c3ccccc23)c1`, the EC50 [1] is reported as > 99 µM (inactive) and the EC50 [2] is reported as > 99 µM (inactive).
With `COc1cccc(NC(=S)N2CCC(Cc3ccccc3)CC2)c1` the AC50 (Cryptococcus neoformans) was 36.8 µM (active).
